In publication PMC8333425, “Discovery of a dual Ras and ARF6 inhibitor from a GPCR endocytosis screen” (Nature Communications, 2021):
In brackets after ≈: the same amount, converted by molar mass. Several values for one entry are separate records, joined by “and”; a condition that tells them apart may be missing. Equal values may be shown once.

Assays:
[1] = Maximal solubility concentration; format: physicochemical
[2] = system: MDA-MB-231 cells; assay: Cell viability assay (MTT), MDA-MB-231; format: cell-based, human; conditions: for cell viability (MTT signal): S_Fig12f, listed as Comp 21.8
Procedure: MDA-MB-231 breast cancer cells and A549 lung carcinomas (1500 cells in 150 μl/well) were seeded overnight on a clear 96-well plate. Twenty-four hours later, the cells were treated with 0.1% DMSO, or different concentrations of Rasarfin (as indicated), or 10 µM of 21.4, 21.8 (MDA-MB-231 breast cancer cells) or Doxorubicin for the indicated times at 37 °C. At each time point, 10 μl of 5 mg/ml MTT was added to each well and the plates were incubated for an additional 4 h at 37 °C. The absorbance at 590 nm was measured by plate reader. Experiments were done in triplicate and repeated three times.

[3] = system: AT1R; assay: Endosomal BRET assay of AngII-mediated AT1R internalization (AT1R-RlucII / Endo-rGFP; HTS, validation, concentration-response); format: cell-based, human
Description: We performed a HT campaign in HEK293 cells using the bystander endosomal BRET sensor, which consists of a Renilla luciferase (RlucII)-tagged AT1R and an acceptor renilla GFP (rGFP) anchored to endosomes through an Endofin-FYVE (Endo-rGFP) domain[12]. AngII-mediated trafficking of AT1R to endosomes was screened against commercial libraries of ~115,000 small molecules (Fig. 1a and Supplementary Data 1). Because our assay is based on luminescence and fluorescence, we excluded 6610 compounds that quenched more than 50% of the luciferase or GFP signals. After excluding 5 AT1R antagonists, we conserved hit compounds blocking by more than 40%, as well as those potentiating by more than 100% receptor internalization. From this collection of 943 compounds, a second validation on AT1R internalization was performed using the same BRET assay, as well as on the agonist-mediated B2R internalization, this time using B2R-RlucII and Endo-rGFP. Only compounds that were revalidated on AT1R and affected B2R endocytosis were kept, which included forty hits (20 potentiators and 20 inhibitors) (Fig. 1b and Supplementary Data 2). We focused on inhibitors that were commercially available at the beginning of the project and tested their cell toxicity by microscopy, looking at cells expressing B2R tagged with YFP, which highlights cell contours and potential morphological changes, such as rounding up of cells following treatment with 50 μM of the compounds that may have indicated cell death. None of the inhibitors tested caused abnormal cell morphological changes when cells were treated with compounds as compared to DMSO-treated cells. Inhibitors were also assessed in terms of structure novelty, derivatization potential, and commercial availability of analogs (within 95–98% similarity from Tanimoto metric, Sci-Finder, https://scifinder-n.cas.org), for structure-activity relationship studies (SAR). They were scored 1–5, from best to worst. We excluded compounds with potential nucleophilic reactivity (e.g., Michael addition: compounds 7, 26, and 27), those reported to have biological activities (compounds 8, 20, 25, 30, and 35) and/or showing autofluorescence (compound 26). Compound 19 ranked high, but only had one other molecule with a similar structure available. Although other molecules could be interesting in their own rights as endocytosis inhibitors (e.g., compounds 1, 9, 11, 12, 13, 24, 31, and 37), we focused on compound 21 (Fig. 1c) because not only did it rank high in our analysis, but it was also the only compound with substantially more similar analogs commercially available at the time of these investigations. In the screen and the follow-up validation assay, 21 inhibited more than 50% AT1R internalization and more than 65% B2R internalization (Supplementary Data 2). […] Because β-arrestins are critically involved in GPCR endocytosis and trafficking in cells, we assessed 21’s effects on β-arrestins’ recruitment to AT1R and B2R at the PM using a BRET assay, as well as their trafficking into endosomes by microscopy.
The chemical library used for initial screening was from Chembridge DiverSet™ (60,000 compounds), Maybridge HitFinder™ (16,000 compounds), Maybridge (selected, 16,000 compounds), SPECS (selected, 16000 compounds), Microsource Discovery Spectrum (2000 compounds), Biomol (natural products, 500 compounds), Prestwick (commercialized products, 1120 compounds), SIGMA LopacTM (1280 compounds) and internal collection (synthesized at Université de Montréal-IRIC, ~4000 compounds). Compounds were all assigned an Université de Montréal number (UM) for internal use. Screen was performed at IRIC HTS facility. KINOMEscan™ profiling was serviced by Eurofin/DiscoverX (San Diego, USA).
HEK293SL cells were seeded at a density of 7.5 × 10^5 cells per 100-mm dish and 24 h later, transiently transfected as such. […]

[4] = target: H-Ras (Homo sapiens, UniProt P01112); assay: In vitro mant-GTP exchange assay, purified H-Ras with purified SOS1; format: biochemical; design: the cDNA of H-Ras (full length) was obtained by RT-PCR of HEK293SL; GST (N); host or cells: E. coli BL21
Procedure: Ras activity was assessed in a 384-well black bottom plate using the mant-GTP exchange factor assay that measures the uptake of the fluorescent nucleotide analog N-methylanthraniloyl-GTP (mant-GTP) into GTPases. For Ras activation, 2X exchange buffer, 1.66 μg of purified pGEX-6P-1-H-Ras or pGEX-6P-1-K-Ras-WT or pGEX-6P-1-K-Ras-Y32A were added per well in presence of DMSO, different concentrations of Rasarfin (as indicated) or 50 µM of compounds 21.4, 21.7, or 21.8. Using the Infinite 200 Pro plate reader (Tecan) with filters set at 360 nm and 440 nm for detecting the excitation and emissions, respectively, and temperature set at 20 °C, 5 readings were recorded every 5 s before the addition of either H2O, 40 mM EDTA or 0.66 μg purified SOS1. The fluorescence of mant-GTP uptake was measured every 30 sec for 30 min and quantified as the delta relative fluorescence units (RFU), which was calculated as the RFU post-addition minus the 5 averaged RFU pre-addition, per condition.

H-Ras, sequence (P01112 whole entry): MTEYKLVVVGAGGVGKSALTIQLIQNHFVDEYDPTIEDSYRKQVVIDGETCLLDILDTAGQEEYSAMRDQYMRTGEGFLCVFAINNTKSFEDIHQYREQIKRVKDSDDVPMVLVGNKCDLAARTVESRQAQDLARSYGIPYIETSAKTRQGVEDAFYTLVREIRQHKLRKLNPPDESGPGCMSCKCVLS

## CC(C)C(=O)N1CCN(c2ccc(NC(=O)c3cc4ccccc4o3)cc2Cl)CC1 [Compound 21]
[1]; DMSO, organic solvent or mixture, read-out: maximum solubility concentration in DMSO
  solubility: ~50 µM (≈ 21.3 µg/mL)
[2]; Doxorubicin 10 µM
  MDA-MB-231 cell viability (MTT): cell viability was not affected
[2]; after 48 and 72 h of treatment, compared to DMSO
  metabolic activity of MDA-MB-231 cells (MTT): modestly decreased in a dose-dependent manner the metabolic activity of cancer cells
[3]; 21 at 50 µM
  block of AT1R internalization: around 90%
[3]; DMSO = 100
  Mean Diff. DMSO vs. compound (Fig.8a, Dunnett's multiple comparisons test): 49.06
[3]; Homo sapiens, AngII, into endosomes, read-out: IC50 for inhibition of AT1R internalization
  IC50: 10 µM
[3]; Log [Comp21] (M) -4.3
  AT1R internalization into endosomes, ligand-promoted BRET (Mean): 13.6921 percent compared to DMSO
[3]; Log [Comp21] (M) -4.6
  AT1R internalization into endosomes, ligand-promoted BRET (Mean): 24.3306 percent compared to DMSO
[3]; Log [Comp21] (M) -5
  AT1R internalization into endosomes, ligand-promoted BRET (Mean): 74.1156 percent compared to DMSO
[3]; Log [Comp21] (M) -5.3
  AT1R internalization into endosomes, ligand-promoted BRET (Mean): 91.7102 percent compared to DMSO
[3]; Log [Comp 21] (M) -6
  AT1R internalization into endosomes, ligand-promoted BRET (Mean): 95.8484 percent compared to DMSO
[3]; Log [Comp21] (M) -6.3
  AT1R internalization into endosomes, ligand-promoted BRET (Mean): 92.6647 percent compared to DMSO
[3]; Log [Comp 21] (M) -7
  AT1R internalization into endosomes, ligand-promoted BRET (Mean): 100.935 percent compared to DMSO
[3]; confirmation, two experiments, negative = potentiation
  AT1R Confirmation Inhibition (%DMSO): 60.3475 %DMSO
[3]; primary screen, negative = potentiation
  AT1R Primary Screen Inhibition (%DMSO): 53.93 %DMSO
[3]; screen and follow-up validation assay
  inhibition of AT1R internalization: more than 50%
[4]; different concentrations
  uptake of mant-GTP into purified H-Ras in presence of SOS1: inhibited in a dose-dependent manner the uptake of GTP into Ras

## Nn1cnc2scc(-c3ccc(Cc4ccccc4)cc3)c2c1=O [Barbadin, reference compound]
[1]
  maximal solubility concentration: 100 µM

## CCCC(=O)N1CCN(c2ccc(NC(=O)c3cc4ccccc4o3)cc2Cl)CC1 [Compound 21.8]
[2]; 10 µM
  metabolic activity of MDA-MB-231 cells (MTT): moderately decreasing the metabolic activity of cancer cells
[2]; 24h
  cell viability (MTT signal): 0.2449 and 0.2125 and 0.1916
[2]; 48h
  cell viability (MTT signal): 0.2769 and 0.2869 and 0.2058
[2]; 72h
  cell viability (MTT signal): 0.2794 and 0.3667 and 0.3826
[3]; 50 μM
  inhibition of AT1R internalization into endosomes (Fig. 8a): loss of compounds’ efficacy to inhibit AT1R internalization
[4]; 50 μM
  Ras exchange activity, mant-GTP loading into H-Ras with SOS1 (Fig. 8c): inhibited Ras exchange activity
